Test results from patent US20250090510A1, “eIF4G1-eIF1 INHIBITORS AND USE THEREOF” (YEDA RESEARCH AND DEVELOPMENT CO. LTD., priority 2022, published 2025).

Target: T1, eIF4E-eIF4G1 complex (Homo sapiens, UniProt Q04637)
T1 construct: co-immunoprecipitation of endogenous eIF4G1 in HEK293T cells expressing HA-eIF1 or HA-eIF4E was performed; endogenous in cells; host or cells: HEK293T (eIF4G1 endogenous; HA-eIF4E transfected)
Assay: Co-immunoprecipitation of endogenous eIF4G1 with HA-eIF4E
Format: cell-based
Settings: HEK293T; i14G1-10 20 μM, i14G1-12 10 μM; 4 h
Experimental: FIGS. 2A-C: The effect of i14G1-10 and i14G1-12 on eIF1-eIF4G1 and eIF4E-eIF4G1 complexes. (2A-B) HA-eIF1 and HA-eIF4E were each transfected into HEK293T cells and 48 h after transfection cells were treated with DMSO or i14G1-10 (2A) or i14G1-12 (2B) for 4 h, followed by immunoprecipitation of HA-eIF1 or HA-eIF4E using anti-HA-agarose beads. Western blot was run to check co-immunoprecipitation of endogenous eIF4G1 with HA-eIF1 or HA-eIF4E. The graphs represent the co-immunoprecipitation of eIF4G1 with HA-eIF1 (right) or HA-eIF4E (left). Co—IP data shown as mean±SEM of 4-7 independent experiments. The asterisks denote statistically significant difference compared to DMSO, according to Student's t-tests (one-tailed, paired). *p<0.05. (2C) HEK293T cells were treated with DMSO, i14G1-10, or i14G1-12 for 4 h, followed by cell lysis. Respective cell lysates were incubated with cap analog (γ-Aminohexyl-m7GTP) beads for 2 h to precipitate bound eIF4E. Western blot was performed to check co-precipitation of eIF4G1 along with eIF4E on the cap-analog beads. The graph represents the binding fraction of eIF4G1 and eIF4E to the cap-analog beads (mean±SEM) with DMSO (black), i14G1-10 (blue), and i14G1-12 (red), n=6. The asterisks denote statistically significant difference compared to DMSO, according to Student's t-tests (one-tailed, paired). *p<0.05; **p<0.01.
Co-immunoprecipitation. HEK293T cells were transfected with 5 μg of HA-eIF1 or HA-eIF4E plasmids along with 10 ng GFP plasmid to check for transfection efficiency using Jetprime reagent as per manufacturer's protocol. After 48 h, HA-eIF1 and HA-eIF4E expressing HEK293T cells were incubated with DMSO, i14G1-10 (20 μM), and […] (10 μM). 4 h later, cells were lysed using IP buffer (20 mM Tris pH8, 125 mM NaCl, 10% glycerol, 50 mM NaF, 1 mM […], 0.5% NP-40, and 0.2 mM EDTA) supplemented with fresh protease inhibitor cocktail (1:100) and PMSF 200 μM (1:100). Protein extract was taken for immunoprecipitation using either monoclonal anti-HA-agarose antibody (Sigma) or control IgG antibody in IP buffer, at 4° C. for 2 hours. […]

T1 sequence (Q04637 whole entry): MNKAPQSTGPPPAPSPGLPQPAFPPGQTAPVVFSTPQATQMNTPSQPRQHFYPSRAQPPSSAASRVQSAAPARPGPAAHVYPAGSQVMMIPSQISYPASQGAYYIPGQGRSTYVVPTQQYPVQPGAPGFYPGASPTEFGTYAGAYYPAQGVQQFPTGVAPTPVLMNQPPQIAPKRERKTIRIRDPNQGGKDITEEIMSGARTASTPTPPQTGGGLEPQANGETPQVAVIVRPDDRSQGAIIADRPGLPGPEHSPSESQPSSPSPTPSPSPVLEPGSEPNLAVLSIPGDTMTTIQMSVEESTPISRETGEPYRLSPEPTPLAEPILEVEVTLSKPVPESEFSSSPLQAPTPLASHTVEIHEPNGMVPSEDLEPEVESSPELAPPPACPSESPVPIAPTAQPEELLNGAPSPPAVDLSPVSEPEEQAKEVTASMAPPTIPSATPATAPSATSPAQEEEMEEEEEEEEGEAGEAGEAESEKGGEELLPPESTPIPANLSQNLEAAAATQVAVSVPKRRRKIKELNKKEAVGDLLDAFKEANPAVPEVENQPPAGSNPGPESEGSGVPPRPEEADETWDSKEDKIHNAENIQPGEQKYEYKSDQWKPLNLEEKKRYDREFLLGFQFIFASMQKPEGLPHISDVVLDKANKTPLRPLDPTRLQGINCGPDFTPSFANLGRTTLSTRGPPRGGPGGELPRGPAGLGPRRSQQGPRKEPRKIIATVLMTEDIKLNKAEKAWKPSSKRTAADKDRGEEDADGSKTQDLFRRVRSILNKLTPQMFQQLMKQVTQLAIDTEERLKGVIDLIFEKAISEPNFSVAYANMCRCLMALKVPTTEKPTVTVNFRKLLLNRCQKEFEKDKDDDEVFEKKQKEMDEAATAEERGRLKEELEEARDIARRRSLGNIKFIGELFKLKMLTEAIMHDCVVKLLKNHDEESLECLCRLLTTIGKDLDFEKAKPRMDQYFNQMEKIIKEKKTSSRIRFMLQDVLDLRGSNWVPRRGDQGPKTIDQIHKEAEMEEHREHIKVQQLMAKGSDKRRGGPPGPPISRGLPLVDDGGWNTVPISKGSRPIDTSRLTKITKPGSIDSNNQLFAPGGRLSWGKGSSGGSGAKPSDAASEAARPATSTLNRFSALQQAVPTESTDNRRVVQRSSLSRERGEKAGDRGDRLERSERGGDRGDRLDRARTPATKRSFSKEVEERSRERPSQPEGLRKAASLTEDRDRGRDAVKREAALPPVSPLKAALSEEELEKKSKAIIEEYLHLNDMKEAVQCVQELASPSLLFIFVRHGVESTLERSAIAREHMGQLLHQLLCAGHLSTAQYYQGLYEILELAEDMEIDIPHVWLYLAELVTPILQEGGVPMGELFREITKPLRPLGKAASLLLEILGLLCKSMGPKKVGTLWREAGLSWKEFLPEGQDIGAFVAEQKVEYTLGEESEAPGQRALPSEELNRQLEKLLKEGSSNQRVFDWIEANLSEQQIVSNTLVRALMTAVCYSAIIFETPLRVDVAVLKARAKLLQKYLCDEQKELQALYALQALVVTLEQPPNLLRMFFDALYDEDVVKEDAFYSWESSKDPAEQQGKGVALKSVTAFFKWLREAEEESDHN
T1 sequence (P06730 whole entry partner): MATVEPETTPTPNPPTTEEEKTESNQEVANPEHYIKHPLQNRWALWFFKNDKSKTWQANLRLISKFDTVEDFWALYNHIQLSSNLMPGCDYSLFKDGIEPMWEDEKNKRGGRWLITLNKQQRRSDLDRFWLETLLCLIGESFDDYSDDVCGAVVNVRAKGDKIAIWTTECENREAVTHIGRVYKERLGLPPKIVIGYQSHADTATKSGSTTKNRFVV

Row | SMILES | enhancement of eIF4G1 binding to HA-eIF4E
1 | Cn1ccnc1S/C(=C/C=C(C#N)C#N)c1ccc(Cl)cc1 [i14G1-12] | not significant
2 | O=C(/C=C/Sc1ccc(C(F)(F)F)cn1)c1ccccc1 [i14G1-10] | dramatic enhancement
